Data: the supplement of paper PMC13380429

Experiments:
[1] = system: HepG2; assay: drug sensitivity score (DSS) for viability; higher = more toxic; extreme values may be limits of the assay; settings: 72 h
[2] = system: Caco-2; assay: as above; settings: 72 h
[3] = system: Calu-3; assay: as above; settings: 72 h
[4] = system: Vero E6; assay: as above; settings: 72 h
[5] = system: U2OS; assay: as above; settings: 72 h
[6] = system: A549-ACE2 infected with SARS-CoV-2; assay: morphology score (similarity to uninfected cells); higher = more like uninfected cells; settings: 24 h
[7] = system: A549-ACE2; assay: drug-induced phospholipidosis relative to tamoxifen; higher = more phospholipidosis
[8] = system: A549-ACE2 infected with SARS-CoV-2; assay: SARS-CoV-2 infection rate relative to DMSO; higher = more infection; settings: 24 h
[9] = system: HepG2; assay: relative viability EC50 (midpoint between 100% and the lowest measured viability); higher = less toxic; settings: 72 h
[10] = system: Caco-2; assay: as above; settings: 72 h
[11] = system: Calu-3; assay: as above; settings: 72 h
[12] = system: Vero E6; assay: as above; settings: 72 h
[13] = system: U2OS; assay: as above; settings: 72 h
[14] = system: A549-ACE2; assay: phospholipidosis EC50; higher = less potent phospholipidosis inducer
[15] = system: A549-ACE2 infected with SARS-CoV-2; assay: cell count relative to DMSO; higher = less toxic; settings: 24 h
[16] = system: HepG2; assay: cell viability relative to DMSO; higher = less toxic; settings: 72 h
[17] = system: Caco-2; assay: as above; settings: 72 h
[18] = system: Calu-3; assay: as above; settings: 72 h
[19] = system: Vero E6; assay: as above; settings: 72 h
[20] = system: U2OS; assay: as above; settings: 72 h

CN1CCCN(C(c2ccccc2)c2ccc(Cl)cc2)CC1 (stereo not drawn) [homochlorcyclizine]
Settings	drug sensitivity score	relative viability EC50 [µM]
[1]	0.4	–
[2]	0	–
[3]	0	–
[4]	0	–
[5]	0	–
[9]	–	> 10
[10]	–	> 10
[11]	–	> 10
[12]	–	> 10
[13]	–	> 10

Settings	SARS-CoV-2 infection rate [%]	cell count [%]	cell viability [%]	morphology score	phospholipidosis EC50 [µM]
[6], 0.3 µM	–	–	–	0.01	–
[6], 3 µM	–	–	–	0.71	–
[6], 10 µM	–	–	–	0.84	–
[6], 30 µM	–	–	–	0.53	–
[8], 0.3 µM	97	–	–	–	–
[8], 3 µM	51	–	–	–	–
[8], 10 µM	20	–	–	–	–
[8], 30 µM	19	–	–	–	–
[14], 24 h	–	–	–	–	6.4
[14], 48 h	–	–	–	–	7.14
[14], 72 h	–	–	–	–	10.5
[15], 0.3 µM	–	102	–	–	–
[15], 3 µM	–	117	–	–	–
[15], 10 µM	–	113	–	–	–
[15], 30 µM	–	95	–	–	–
[16], 1 nM	–	–	98.7	–	–
[16], 10 nM	–	–	103	–	–
[16], 100 nM	–	–	104	–	–
[16], 1000 nM	–	–	108	–	–
[16], 10000 nM	–	–	79.6	–	–
[17], 1 nM	–	–	97.5	–	–
[17], 10 nM	–	–	94.7	–	–
[17], 100 nM	–	–	90.5	–	–
[17], 1000 nM	–	–	99.6	–	–
[17], 10000 nM	–	–	101	–	–
[18], 1 nM	–	–	96.8	–	–
[18], 10 nM	–	–	94.3	–	–
[18], 100 nM	–	–	100	–	–
[18], 1000 nM	–	–	102	–	–
[18], 10000 nM	–	–	99.3	–	–
[19], 1 nM	–	–	97.9	–	–
[19], 10 nM	–	–	99.5	–	–
[19], 100 nM	–	–	95.2	–	–
[19], 1000 nM	–	–	96.4	–	–
[19], 10000 nM	–	–	102	–	–
[20], 1 nM	–	–	99.8	–	–
[20], 10 nM	–	–	95.7	–	–
[20], 100 nM	–	–	104	–	–
[20], 1000 nM	–	–	99.2	–	–
[20], 10000 nM	–	–	97.1	–	–

drug-induced phospholipidosis [%], [7]
Settings	0.3 µM	0.833333 µM	3.33333 µM	6.66667 µM	10 µM	30 µM
24 h	1.65	3.27	20.6	54.6	81	102
48 h	3.21	3.5	22.2	49.2	82.5	107
72 h	7.01	3.95	24.7	47.4	80.1	134

CC(=O)c1ccc2c(c1)N(CCCN1CCN(CCO)CC1)c1ccccc1S2 [acetophenazine]
Settings	drug sensitivity score	relative viability EC50 [µM]
[1]	0	–
[2]	0	–
[3]	0	–
[4]	0.5	–
[5]	0	–
[9]	–	> 10
[10]	–	> 10
[11]	–	> 10
[12]	–	> 10
[13]	–	> 10

cell viability [%]
Settings	[16]	[17]	[18]	[19]	[20]
1 nM	107	88.8	107	104	93.6
10 nM	98.9	103	110	98.2	100
100 nM	91.1	95.4	95.3	106	96.1
1000 nM	90.9	97.2	108	99	98.2
10000 nM	90.4	97.7	88.7	82.6	91.3

Cc1cc(OCc2nc(-c3ccccc3Cl)cs2)ccc1OCC(=O)O [GPR120-modulator-1]
Settings	drug sensitivity score	relative viability EC50 [µM]
[1]	0	–
[2]	0	–
[3]	0	–
[4]	0	–
[5]	0	–
[9]	–	> 10
[10]	–	> 10
[11]	–	> 10
[12]	–	> 10
[13]	–	> 10

cell viability [%]
Settings	[16]	[17]	[18]	[19]	[20]
1 nM	104	102	96.4	101	92.3
10 nM	93.4	97.5	99.8	102	96.8
100 nM	101	103	99.6	102	92.2
1000 nM	101	98.5	110	97.9	102
10000 nM	92.8	92.8	86.9	97.1	94.3

CCCCOC(=O)c1cc2c(cn1)[nH]c1ccccc12 [beta-CCB]
Settings	drug sensitivity score	relative viability EC50 [µM]
[1]	0	–
[2]	0.1	–
[3]	0	–
[4]	0	–
[5]	0	–
[9]	–	> 10
[10]	–	> 10
[11]	–	> 10
[12]	–	> 10
[13]	–	> 10

cell viability [%]
Settings	[16]	[17]	[18]	[19]	[20]
1 nM	117	95.1	92.2	99.5	102
10 nM	118	95.5	93	97.3	111
100 nM	105	106	107	101	99.3
1000 nM	98.4	94.9	106	98.7	105
10000 nM	96	88.9	91.5	102	96

Oc1ccc2[nH]cc(C3=CCNCC3)c2n1
Settings	drug sensitivity score	relative viability EC50 [µM]
[1]	0	–
[2]	0	–
[3]	0	–
[4]	0	–
[5]	0	–
[9]	–	> 10
[10]	–	> 10
[11]	–	> 10
[12]	–	> 10
[13]	–	> 10

cell viability [%]
Settings	[16]	[17]	[18]	[19]	[20]
1 nM	107	79.9	100	105	94.8
10 nM	106	95.6	92.6	91.2	100
100 nM	97.6	97	105	99.4	97.1
1000 nM	89.1	98.1	104	97	106
10000 nM	100	100	102	102	105

C[C@H]1NCc2cc(-c3ccc4c(=O)c(C(=O)O)cn(C5CC5)c4c3OC(F)F)ccc21 [garenoxacin]
Settings	drug sensitivity score	relative viability EC50 [µM]
[1]	0	–
[2]	0	–
[3]	0	–
[4]	0	–
[5]	0	–
[9]	–	> 10
[10]	–	> 10
[11]	–	> 10
[12]	–	> 10
[13]	–	> 10

cell viability [%]
Settings	[16]	[17]	[18]	[19]	[20]
1 nM	95.2	96.1	107	85.3	102
10 nM	97.4	91.2	92.3	97	96.3
100 nM	92.3	102	105	85.4	99.2
1000 nM	109	95.9	106	91.7	98
10000 nM	99	98.6	104	104	99.7
